# Reference: paper PMC9305623, “Next generation GLP-1/GIP/glucagon triple agonists normalize body weight in obese mice” (Molecular Metabolism, 2022)
# *1 amine or outer side, *2 acyl side, *3 side chain or, on linkers, in order; H or OH if unused. Where a SMILES comes first, the peptide text is derived from it. Side-chain parts run from the residue outwards. [ ]: non-standard residue; d: D form. The star is where a group is joined. C20 diacid = O=C(O)CCCCCCCCCCCCCCCCCCC(=O)*; γGlu = O=C(O)[C@H](CCC(=O)[*:2])N[*:1]; εLys = N[C@@H](CCCCN[*:1])C(=O)[*:2]; Aib = CC(C)(N)C(=O)O
# Tests used:
# [1] = in vivo; parameters: species or system Göttingen minipigs; conditions: female, Göttingen, minipig, iv, 2 nmol/kg
# Procedure: Studies were conducted in accordance with the Protection of Animals Act, the Act on Experiments on Animals, and the Standard Operating Procedures for Experiments on Animals at Novo Nordisk A/S. The experiments were performed under the supervision and approval of the Danish Government Animal Experiments Inspectorate and the Novo Nordisk Ethical Review Counsel. Female Göttingen minipigs (Ellegaard Göttingen Minipigs A/S), 7–14 months old and weighing 16–35 kg, were housed individually and fed once daily with a restricted SDS minipig diet (Special Diets Services). At least one week before the study, two permanent central venous catheters were implanted in the caudal vena cava of each animal. The animals were fasted for approximately 18 h before dosing and 4 h after dosing but had ad libitum access to water during the whole period. Test compounds dissolved to a concentration of 20–40 nmol/mL in a vehicle (pH 7.4) containing 0.025% polysorbate-20, 10 mM sodium phosphate, and 250 mM glycerol were administered via an intravenous injection through one catheter at a dose of 2 nmol/kg. Blood samples were collected in 8 mM aqueous EDTA for up to 14 days post dosing, preferably through the other catheter, then centrifuged at 4 °C and ∼2000g for 10 min. Plasma was isolated and immediately frozen until RP-HPLC/MS analysis. Individual plasma concentration–time profiles were analysed by a non-compartmental model in Phoenix WinNonLin software (Pharsight Inc.), and the resulting terminal half-lives were determined at the harmonic mean.
# [2] = target: T1, mGLP-1 Receptor (Mus musculus, UniProt O35659); test: Receptor activation: cAMP production by CRE-luciferase reporter in stably transfected BHK cells; type: cell-based; conditions: relative to native ligand at mouse-derived receptor
# T1 construct: expressed in transfected cells; host or cells: baby hamster kidney (BHK) cells, stably transfected, with CRE-firefly luciferase reporter
# T1 sequence (O35659 22-463): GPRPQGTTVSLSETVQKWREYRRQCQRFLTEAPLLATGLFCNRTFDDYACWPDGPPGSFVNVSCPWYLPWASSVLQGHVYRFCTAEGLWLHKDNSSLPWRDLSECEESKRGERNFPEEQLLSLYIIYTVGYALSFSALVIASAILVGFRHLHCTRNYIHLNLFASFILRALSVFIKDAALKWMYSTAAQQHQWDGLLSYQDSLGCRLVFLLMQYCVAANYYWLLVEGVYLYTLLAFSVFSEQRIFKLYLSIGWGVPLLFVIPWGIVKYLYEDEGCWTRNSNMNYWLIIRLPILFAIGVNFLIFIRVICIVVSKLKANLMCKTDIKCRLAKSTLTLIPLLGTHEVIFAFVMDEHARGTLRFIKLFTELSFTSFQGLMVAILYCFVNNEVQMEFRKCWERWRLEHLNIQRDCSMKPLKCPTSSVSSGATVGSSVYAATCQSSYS
# Procedure: (§1) Cyclic AMP (cAMP) production was assessed as a proxy for receptor activation using stably transfected baby hamster kidney (BHK) cell lines expressing the DNA for one individual receptor (GLP-1R, GIPR, GcgR; human- or mouse-specific sequence) and the DNA for the firefly luciferase reporter gene linked to the cAMP response element (CRE). The cells were kept in continuous culture at 37 °C and 5% CO2 in Dulbecco's Modified Eagle Medium (DMEM) supplemented with 10% heat-inactivated fetal bovine serum (HI-FBS), 300 μg/mL hygromycin, and 500 μg/mL G418; for cell lines expressing GIPR, the G418 concentration was lowered to 400 μg/mL. Cells were plated in a 96-well poly-D-lysine-coated plate at 5,000 cells per well in growth media and incubated overnight at 37 °C with 5% CO2. After the overnight incubation, the media was removed, the plate was washed once in Dulbecco's phosphase-buffered saline (DPBS), and 50 μL of assay buffer (DMEM without phenol red, 10 mM HEPES, 1x Glutamax, 1% ovalbumin, 0.1% Pluronic F-68) was added to each well. […] The assay plate was covered to protect reagent from light, shaken at 250 rpm at room temperature for 30 min, and read in a microtiter plate reader. EC50 values were calculated using Prism software (GraphPad) with the nonlinear regression log(agonist) vs. response. A minimum of two replicates were measured for each sample.
# [3] = target: T2, mGcg Receptor (Mus musculus, UniProt Q61606); test: as above; type: cell-based; conditions: relative to native ligand at mouse-derived receptor
# T2 construct: expressed in transfected cells; host or cells: baby hamster kidney (BHK) cells, stably transfected, with CRE-firefly luciferase reporter
# T2 sequence (Q61606 27-485): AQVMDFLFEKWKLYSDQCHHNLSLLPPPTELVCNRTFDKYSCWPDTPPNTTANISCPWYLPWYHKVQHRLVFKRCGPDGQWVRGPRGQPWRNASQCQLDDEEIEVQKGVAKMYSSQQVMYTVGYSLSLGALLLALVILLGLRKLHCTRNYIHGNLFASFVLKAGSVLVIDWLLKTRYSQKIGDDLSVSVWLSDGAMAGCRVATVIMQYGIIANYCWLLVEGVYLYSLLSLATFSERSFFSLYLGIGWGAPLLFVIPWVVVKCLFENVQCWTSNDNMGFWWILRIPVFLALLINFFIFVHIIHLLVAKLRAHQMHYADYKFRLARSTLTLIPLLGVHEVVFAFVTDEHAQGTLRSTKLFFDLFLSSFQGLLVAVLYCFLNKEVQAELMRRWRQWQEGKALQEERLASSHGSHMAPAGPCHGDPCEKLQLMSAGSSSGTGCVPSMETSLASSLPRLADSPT
# Procedure: as §1
smiles,measurement,setting,value
CC[C@H](C)[C@H](NC(=O)[C@H](CO)NC(=O)[C@H](Cc1ccc(O)cc1)NC(=O)[C@H](CC(=O)O)NC(=O)[C@H](CO)NC(=O)[C@@H](NC(=O)[C@H](Cc1ccccc1)NC(=O)[C@@H](NC(=O)CNC(=O)[C@H](Cc1c[nH]cn1)NC(=O)C(C)(C)NC(=O)[C@@H](N)Cc1c[nH]cn1)[C@@H](C)O)[C@@H](C)O)C(=O)N[C@@H](Cc1ccc(O)cc1)C(=O)N[C@@H](CC(C)C)C(=O)N[C@@H](CCC(=O)O)C(=O)N[C@@H](CCCCNC(=O)[C@@H](N)CCCCNC(=O)[C@@H](N)CCCCNC(=O)CC[C@H](NC(=O)CCCCCCCCCCCCCCCCCCC(=O)O)C(=O)O)C(=O)N[C@@H](CCCCN)C(=O)N[C@@H](Cc1ccc(O)cc1)C(=O)N[C@@H](C)C(=O)NC(C)(C)C(=O)N[C@@H](CCC(=O)O)C(=O)N[C@@H](Cc1ccccc1)C(=O)N[C@H](C(=O)N[C@@H](CCC(N)=O)C(=O)N[C@@H](Cc1c[nH]c2ccccc12)C(=O)N[C@@H](CC(C)C)C(=O)N[C@@H](CC(C)C)C(=O)N[C@@H](CCC(=O)O)C(=O)NCC(=O)NCC(=O)N1CCC[C@H]1C(=O)N[C@@H](CO)C(=O)N[C@@H](CO)C(=O)NCC(=O)N[C@@H](C)C(=O)N1CCC[C@H]1C(=O)N1CCC[C@H]1C(=O)N1CCC[C@H]1C(=O)N[C@@H](CO)C(N)=O)C(C)C [Compound 16] (H-H[Aib]HGTFTSDYSIYLEK([εLys-εLys-γGlu-C20 diacid])KYA[Aib]EFVQWLLEGGPSSGAPPPS-NH2),Vd,[1],0.164 L/kg
same,clearance,[1],1.5 mL/h/kg
same,half-life,[1],75 h
same,mGLP-1 Receptor Relative Potency %,[2],142%
same,mGcg Receptor Relative Potency %,[3],78%
